Where “and” joins values, the source holds several entries; their conditions need not be identical. Equal values may be shown once. Read-outs that look alike come from different tables or passages of the source.
Key:
[1] = Urinary excretion and pharmacokinetics after a single oral dose of 50 mg of pure ecdysterone (LC-MS/MS of urine); assay type: in vivo, human; settings: for Subjects in whose post-administration urine the analyte was detected: 12 subjects; for Cmax / half-life / Tmax: both sexes; for Cmax / half-life: human, po, 50 mg; for Tmax: read-out: Tmax (time to maximum urinary concentration); for Cumulative urinary excretion percentage relative to dose, mean / Cumulative urinary excretion percentage relative to dose, range over subjects: percent of the 50 mg dose; for Cumulative urinary excretion percentage relative to dose, mean: mean value; for Cumulative Du (cumulative amount excreted in urine): mean ± SD of 12 subjects (14-deoxy-poststerone n = 10); for Kinetics of urinary elimination: log-linear rate of excretion versus middle-point time; for Difference of cumulative urinary excretion percentage between male and female (T-test): p ≤ 0.05, 5 males, 7 females
Procedure: The study was approved by the ethical committee of the German Sport University Cologne, and was carried out following the regulations of the Helsinki declaration. Twelve healthy subjects (7 females and 5 males) with a mean age (standard deviation [SD]) of 26 (3.1) y, weight of 74 (12.0) kg, and height of 174 (8.3) cm participated in the study. A single-dose of 50 mg of pure ecdysterone dissolved in 50 cl of alcoholic solution was administered to the subjects. All doses were administered at 9.00 a.m. in the morning. The urine samples were collected one day before (blank samples) and five days after the administration of ecdysterone. Sampling time (h) and urine volume (mL) were recorded. Aliquots of urine samples were stored frozen at −18 °C, until analysis.
Urine samples (200 µL) spiked with 10 µL of the ISTD ponasterone (working solution 10 µg/mL) and diluted to 1 mL with methanol:water (10:90, v/v). The tubes were vortex-mixed and then centrifuged at 9677 RCF for 8 min.
The analysis of ecdysterone and its metabolite in calibration and urine samples was performed by LC–MS/MS on an Agilent 1200 Infinity series, coupled to an Ultivo triple quadrupole tandem MS system, utilizing a Jet Stream electrospray ionization (ESI) source and an Ion Funnel (Agilent Technologies GmbH, Waldronn, Germany).
In this study, the excretion profile, the cumulative amount excreted in urine, and the half-life of ecdysterone and its metabolites, after a single-dose administration of 50 mg of pure ecdysterone were evaluated according to [45].
To obtain the excretion rates, Equation (1) was applied:(1) Erate,i=Ci x Vi/ (ti−ti−1)
For each urine sample, the calculated concentration (Ci, ng/mL) of ecdysterone, 14-deoxy-ecdysterone, and 14-deoxy-poststerone was adjusted as a function of the dilution factor applied (1:5) and of the volume of urine collected (Vi, mL), obtaining the corresponding amount of drug in urine (expressed in ng), which was divided by the interval between the time values of the sampling and the previous sampling (ti − ti−1).
The excretion profile curves of ecdysterone and its metabolites for each subject were then obtained by plotting the calculated rate of excretion values (ng/h) versus time (middle-point of sample collection, hours) or simply the calculated concentrations (ng/mL) versus time (sampling time, hours). The first collected interval started at 0 h after the oral administration of ecdysterone at 9 a.m.
For each sample, the amount of drug excreted in urine was calculated and added to the amount of drug recovered in the previous urine sample to obtain the cumulative urinary drug excretion, which was plotted in a graph versus the sampling time (hours).
The half-life using the elimination rate constant (k) was calculated by applying Equation (2):(2) t1/2=ln(2)/k
Two different methods were used to calculate the elimination rate constant (k). In the rate of excretion method, k was obtained from the slope of the elimination phase of the ln-transformed excretion curve (Figure 6).
In the sigma minus method, k was obtained from the slope of the elimination phase of the ln-transformed remaining drug to be excreted.

[2] = Stability of analytes in spiked urine QC samples (bench-top, long term, freeze-thaw); assay type: in vitro ADME, human; settings: vs t = 0, mean n = 3
Procedure: The stability of ecdysterone and 14-deoxy-ecdysterone in urine was determined in triplicates, using the LQC and HQC samples, which were analyzed immediately and again after storage, as reported in Table 4. Freshly prepared QC samples (at t = 0) were used as baseline to assess the stability.
To evaluate the bench-top stability, LQC and HQC samples were left at room temperature for 4, 8, and 24 h, before analysis. Freeze and thaw stability was evaluated after three cycles for LQC and HQC. Long-term stability was evaluated analyzing the LQC and HQC samples, after storing them at −20 °C for two weeks. The results of the stability tests applied were calculated using the peak area ratio of the analytes to the ISTD, which were compared to the baseline (t = 0). Comparing the mean of the ratios after a specific storage condition to the mean of the ratio at t = 0. The results obtained were all within the ±15%.

[3] = single oral dose 50 mg ecdysterone
[4] = urine, human urine, single oral dose 50 mg ecdysterone, mean ± SD of 12 subjects (14-deoxy-poststerone n = 5), read-out: Cmax (maximum urinary concentration)
[5] = urine, human urine, single oral dose 50 mg ecdysterone, mean ± SD of 12 subjects (14-deoxy-poststerone n = 5), read-out: Half Life, Rate of Excretion method (converted)
[6] = urine, human urine, single oral dose 50 mg ecdysterone, mean ± SD of 12 subjects (14-deoxy-poststerone n = 5), read-out: Half Life, Sigma-Minus method (converted)
[7] = urine, human urine, single oral dose 50 mg ecdysterone, range over subjects, read-out: Maximum urinary concentration (Cmax), range over subjects
[8] = human urine, single oral dose 50 mg ecdysterone, mean ± SD of 12 subjects (14-deoxy-poststerone n = 5)
[9] = human urine, range over subjects
[10] = human urine, single oral dose 50 mg ecdysterone
[11] = human urine, single oral dose 50 mg ecdysterone, range over subjects
[12] = HQC, bench-top room temperature 4 h
[13] = HQC, bench-top room temperature 8 h
[14] = HQC, bench-top room temperature 24 h
[15] = HQC, long term 2 weeks at −20 °C
[16] = LQC, bench-top room temperature 4 h
[17] = LQC, bench-top room temperature 8 h
[18] = LQC, bench-top room temperature 24 h
[19] = LQC, long term 2 weeks at −20 °C

## CC(C)(O)CC[C@@H](O)[C@](C)(O)[C@H]1CC[C@H]2C3=CC(=O)[C@@H]4C[C@@H](O)[C@@H](O)C[C@]4(C)[C@H]3CC[C@]12C [14-deoxy-ecdysterone, Alpha-14-deoxy-ecdysterone]
[1]; [3]
  Subjects in whose post-administration urine the analyte was detected: all 12 subjects
[1]; [4]
  Cmax: 1400 ± 1600 ng/mL
[1]; [5]
  half-life: 3.1 ± 1.3 h
[1]; [6]
  half-life: 2.2 ± 0.9 h
[1]; [7]
  Cmax: 100 to 6000 ng/mL
[1]; urine, human urine, single oral dose 50 mg ecdysterone, read-out: Urinary half-life (approximate) (converted)
  half-life: ~3 h
[1]; [8]
  Tmax: 19.7 ± 8.9 h
  ERmax (maximum urinary rate of excretion): 0.1 ± 0.1 mg/h
  Midpoint Timemax (maximum urinary middle-point time): 17.5 ± 7.0 h
[1]; human urine
  Cumulative urinary excretion percentage relative to dose, mean: 2.3%
[1]; [9]
  Cumulative urinary excretion percentage relative to dose, range over subjects: 0.4–6.1%
[1]; [10]
  Duration of detectability in urine: about 3 days
  First detection in urine after administration (start of detection window): 2.95 h
  Remained detectable in urine until (end of detection window): 75 h
  Urinary half-life (approximate): three
  Cumulative Du (cumulative amount excreted in urine): 1.1 ± 0.9 mg
[1]; [11]
  Maximum excretion rate, range over subjects: 0.02 to 0.24 mg/h
  Time of the urine with maximum concentration, range over subjects: 8.5 to 39.5 h and 8.5 to 39.50 h
  Time of the urine with maximum excretion rate, range over subjects: 10.1 to 29.5 h
[1]; in 58.3% of subjects
  Time at which cumulative urinary excretion reaches a plateau: 25 to 40 h
[1]; in the remaining 16.6% of subjects
  Time at which cumulative urinary excretion reaches a plateau: 40 to 62 h
[1]
  Kinetics of urinary elimination: first-order kinetics
  Difference of cumulative urinary excretion percentage between male and female (T-test): No significant difference
[2]; [12]
  Stability%: 101%
[2]; [13]
  Stability%: 100%
[2]; [14]
  Stability%: 101%
[2]; HQC, freeze-thaw 3 cycles
  Stability%: 103%
[2]; [15]
  Stability%: 87%
[2]; [16]
  Stability%: 103%
[2]; [17]
  Stability%: 101%
[2]; [18]
  Stability%: 97%
[2]; LQC, freeze-thaw 3 cycles
  Stability%: 110%
[2]; [19]
  Stability%: 91%

## CC(=O)[C@H]1CC[C@H]2C3=CC(=O)[C@@H]4C[C@@H](O)[C@@H](O)C[C@]4(C)[C@H]3CC[C@]12C [14-deoxy-poststerone, alpha-14-deoxy-poststerone]
[1]; [3]
  Subjects in whose post-administration urine the analyte was detected: 10 out of 12
[1]; [4]
  Cmax: 800 ± 700 ng/mL
[1]; [5]
  half-life: 9.7 ± 9.5 h
[1]; [6]
  half-life: 4.4 ± 1 h
[1]; [7]
  Cmax: 100 to 1500 ng/mL
[1]; [8]
  Tmax: 30.1 ± 7.2 h
  ERmax (maximum urinary rate of excretion): 0.1 ± 0.1 mg/h
  Midpoint Timemax (maximum urinary middle-point time): 27.8 ± 3.7 h
[1]; human urine
  Cumulative urinary excretion percentage relative to dose, mean: 1.5%
[1]; [9]
  Cumulative urinary excretion percentage relative to dose, range over subjects: 0.01–4.9%
[1]; [10]
  Duration of detectability in urine: about 4 days
  First detection in urine after administration (start of detection window): 8.50 h
  Remained detectable in urine until (end of detection window): 97 h
  Cumulative Du (cumulative amount excreted in urine): 0.7 ± 1.1 mg
[1]; [11]
  Time of the urine with maximum concentration, range over subjects: 23.3 to 41.3 h
[1]
  Difference of cumulative urinary excretion percentage between male and female (T-test): significant difference

## CC(C)(O)CC[C@@H](O)[C@](C)(O)[C@H]1CC[C@@]2(O)C3=CC(=O)[C@@H]4C[C@@H](O)[C@@H](O)C[C@]4(C)[C@H]3CC[C@]12C [Ecdysterone, 2β,3β,14α,20β,22R,25-hexahydroxy-5β-cholest-7-en-6-one]
[1]; [3]
  Subjects in whose post-administration urine the analyte was detected: all subjects
[1]; in vivo, human urine, single oral dose 50 mg ecdysterone, mean ± SD of 12 subjects (14-deoxy-poststerone n = 5), read-out: Cmax (maximum urinary concentration)
  Cmax: 12100 ± 9200 ng/mL
[1]; in vivo, human urine, single oral dose 50 mg ecdysterone, mean ± SD of 12 subjects (14-deoxy-poststerone n = 5), read-out: Half Life, Rate of Excretion method (converted)
  half-life: 3.4 ± 1 h
[1]; in vivo, human urine, single oral dose 50 mg ecdysterone, mean ± SD of 12 subjects (14-deoxy-poststerone n = 5), read-out: Half Life, Sigma-Minus method (converted)
  half-life: 3 ± 1 h
[1]; in vivo, human urine, single oral dose 50 mg ecdysterone, range over subjects, read-out: Maximum urinary concentration (Cmax), range over subjects
  Cmax: 4400 to 30000 ng/mL
[1]; in vivo, human urine, single oral dose 50 mg ecdysterone, read-out: Urinary half-life (approximate) (converted)
  half-life: ~3 h
[1]; in vivo, human urine, single oral dose 50 mg ecdysterone, mean ± SD of 12 subjects (14-deoxy-poststerone n = 5)
  Tmax: 4.6 ± 1.8 h
[1]; human urine
  Cumulative urinary excretion percentage relative to dose, mean: 18%
[1]; [9]
  Cumulative urinary excretion percentage relative to dose, range over subjects: 2.8–47.2%
[1]; human urine, post-dosage
  Time at which cumulative urinary excretion reaches a plateau: 12 h
[1]; [10]
  Duration of detectability in urine: more than 2 days
  First detection in urine after administration: 45 min
  Remained detectable in urine until (end of detection window): 58 h
  Urinary half-life (approximate): three
  Cumulative Du (cumulative amount excreted in urine): 8.8 ± 6.6 mg
[1]; [8]
  ERmax (maximum urinary rate of excretion): 1.7 ± 1.4 mg/h
  Midpoint Timemax (maximum urinary middle-point time): 2.1 ± 1.3 h
[1]; [11]
  Maximum excretion rate, range over subjects: 0.1 to 4.8 mg/h
  Time of the urine with maximum concentration, range over subjects: 2.8 to 8.5 h
  Time of the urine with maximum excretion rate, range over subjects: 0.4 to 4.4 h
[1]
  Kinetics of urinary elimination: first-order kinetics
  Difference of cumulative urinary excretion percentage between male and female (T-test): No significant difference
[1]; listed as ecdysterone
  Kinetics of urinary elimination: first-order
[2]; [12]
  Stability%: 101%
[2]; [13]
  Stability%: 98%
[2]; [14]
  Stability%: 100%
[2]; HQC, freeze-thaw 3 cycles
  Stability%: 103%
[2]; [15]
  Stability%: 87%
[2]; [16]
  Stability%: 100%
[2]; [17]
  Stability%: 104%
[2]; [18]
  Stability%: 100%
[2]; LQC, freeze-thaw 3 cycles
  Stability%: 111%
[2]; [19]
  Stability%: 94%

— paper PMC8227119, “Urinary Elimination of Ecdysterone and Its Metabolites Following a Single-Dose Administration in Humans” (Metabolites, 2021)
